Source: patent US11643428B2, “Therapeutic drug for neurodegenerative disease and application thereof” (SHANGHAI PHARMACEUTICALS HOLDING CO., LTD., priority 2018, dated 2023)

How the values were obtained:
MPTP mice model [1] = experiment: Striatal dopaminergic nerve fibers, TH western blot, MPTP model; type: in vivo, mouse; details: PL201+MPTP vs NS+MPTP group, Day 7 after MPTP modeling
Procedure: (§1) The mice were randomly divided into 4 groups: a group in which the mice was administrated with normal saline (NS), a MPTP model group in which the mice was intragastrical administrated with normal saline (NS+MPTP), a group in which the mice was intragastrical administrated with 50 mg of compound PL201 (PL201), and a MPTP model group in which the mice was intragastrical administrated with compound PL201 (PL201+MPTP).
(§2) 11 animals were set in the group in which the mice was administrated with normal saline (NS), 14 animals were set in the MPTP model group in which the mice was intragastrical administrated with normal saline (NS+MPTP), 4 animals were set in the group in which the mice was intragastrically administrated with 50 mg of compound PL201 (PL201), 15 animals were set in the MPTP model group in which the mice was intragastrically administrated with the compound PL201 (PL201+MPTP).
The administration started on the day of animal grouping: mice in the NS and the NS+MPTP group were administrated with normal saline, and mice in the other two groups were administrated with compound PL201 once a day for 7 consecutive days. […]
On Day 7 after MPTP modeling, animals in each group were anesthetized with 10% chloral hydrate. […] The fluorescence signal was detected by Odyssey near-infrared fluorescence scanner and made statistics.

MPTP mice model [2] = experiment: Pole-climbing test in MPTP model; type: in vivo, mouse; details: PL201+MPTP vs NS+MPTP group, 50 mg intragastrically once a day, day 3 of the experiment
Procedure: as §1, with “([…]),” for “(NS+MPTP),”
as §2, with “(PL201+MPTP). […]” for “(PL201+MPTP).”
On Day 3 of the experiment, the pole-climbing test of mice was carried out to evaluate the motor coordination ability of the mice. […] The time taken by the mice to turn from head upwards to head downwards completely was recorded as the time to turn around, and the time taken by the mice from moving downwards to all limbs reaching the bottom of the pole was recorded as the time to climb down. Time exceeded 30 seconds was recorded as 30 seconds. […]

mouse BV-2 cell line = experiment: Expression of inflammatory factors in LPS-treated BV-2 cells by QPCR; type: cell-based; details: PL201 10, 30, 100 μM, LPS 300 ng/ml, 24 hours
Procedure: Neuroinflammation in the brain of AD is one of the causes of cognitive decline. Microglial cells are the key cells that mediate neuroinflammation. In this example, the inventors have explored whether PL201 has the effect of inhibiting neuroinflammation by detecting the expressions of inflammatory factors on mouse BV-2 cell line.
BV-2 cells were cultured in DMEM, plated to 24 well plates and cultured for 24 hours, then PL201 (0, 10, 30, and 100 μM) and LPS (300 ng/ml) were added. After co-incubation for 24 hours, Trizol was used to extract RNA and the expressions of related inflammatory factors were detected by QPCR.
Mouse BV-2 cells were cultured in DMEM, plated to 24 well plates and cultured for 24 hours, then PL202 (0, 30, 100, and 300 μM) and LPS (300 ng/ml) were added. After co-incubation for 24 hours, Trizol was used to extract RNA and the expressions of related inflammatory factors were detected by QPCR.

Human neural stem cells = experiment: Neural stem cell proliferation under Aβ by EdU incorporation; type: cell-based; details: Aβ 5 μM pre-treatment 30 minutes, PL201 30 μM, 72 hours
Procedure: As the main pathogenic protein of AD, Aβ inhibits neural stem cell proliferation. In this example, the inventors detected the levels of human neural stem cell proliferation by EdU incorporation, and tested whether PL201 can alleviate the inhibition effect of Aβ on the proliferation of neural stem cells.
Human neural stem cells (3 L) were cultured in DMEM/F12 (containing N2/B27 and 10 ng/ml bFGF), plated to 96 well plates and incubated for 24 hours, then Aβ (5 μM) was added to pre-treat the cells for 30 minutes, and then PL201 (30 μM) was added. After co-incubation for 72 hours, the proliferation level of neural stem cells was detected by EdU staining.

[3] = test system: AMPK phosphorylation in human neural stem cells; experiment: AMPK phosphorylation level by western blot; type: cell-based; details: Aβ 5 μM pre-treatment 30 minutes, PL201 30 PM, 72 hours
Procedure: The changes of mitochondrial function are closely related to the regulation of metabolism signaling including AMPK, which is also widely considered to be closely related to the pathogenesis of AD. In this example, the inventors have explored whether PL201 has an effect on metabolism signaling by detecting the level of AMPK phosphorylation in human neural stem cells via western blot.
Human neural stem cells (3 L) were cultured in DMEM/F12 (containing N2/B27 and 10 ng/ml bFGF), plated to 12 well plates and cultured for 24 hours, then Aβ (5 μM) was added to pre-treat the cells for 30 minutes, and then PL201 ([…]) was added. After co-incubation for 72 hours, the cells were washed with PBS and lysed with Laemmli's sample buffer, then SDS PAGE electrophoresis was performed to detect associated protein bands with rabbit anti-phospo-AMPK and total AMPK antibody.

## COc1cc(/C=C/C(=O)OC2OC(C)C(O)C(O)C2O)ccc1O [PL201, (α-L-rhamnopyranosyl) ferulic acid ester]
MPTP mice model [1]
  level of striatal dopaminergic nerve fibers (TH western blot): significantly increased
MPTP mice model [2]
  time to climb down: reduced
  time to turn around: reduced
Mouse BV-2 cell line
  expression of inflammatory factor IL-1β: significantly inhibit
  expression of inflammatory factor TNFα: significantly inhibit
Human neural stem cells
  proliferation level of neural stem cells (EdU staining): significantly alleviate the inhibitory effect of Aβ
[3]
  AMPK phosphorylation level: reduced the extent of this decline
